Measurements as given in article PMC11984392, “EphA2-targeted alpha-particle theranostics for enhancing PDAC treatment” (Theranostics, 2025).
Read-outs that look alike come from different tables or passages of the source. *1 amine or outer side, *2 acyl side, *3 side chain or, on linkers, in order; H or OH if unused. Where a SMILES comes first, the peptide text is derived from it. Bridges are numbered along the chain shown (N, C = ends). [ ]: non-standard residue; d: D form. The star is where a group is joined. TATA = O=C(CC[*:1])N1CN(C(=O)CC[*:2])CN(C(=O)CC[*:3])C1; NOTA = O=C(O)CN1CCN(CC(=O)O)CCN(CC(=O)*)CC1; Hyp = O=C(O)[C@@H]1C[C@@H](O)CN1; hArg = N=C(N)NCCCC[C@H](N)C(=O)O; PEG2 = NCCOCCOCCC(=O)O; Sar = CNCC(=O)O

Tests used:
[1] = Ex vivo biodistribution; design: species or system NSG mice; conditions: both sexes, NSG, mouse, in vivo, total radioactivity, mean ± SEM (n = 4 or 5); for tissue uptake at 2 h / tissue to tissue ratio at 2 h: 120 min p.i.; for tissue to tissue ratio at 2 h: dimensionless; for tissue uptake at 5 min: 5 min p.i.; for tissue uptake at 0.5 h: 30 min p.i.; for tissue uptake at 1.5 h: 90 min p.i.
Procedure: Animal studies were performed under Johns Hopkins University Animal Care and Use Committee (ACUC)-approved protocol (Principal investigator: Sridhar Nimmagadda, Ph.D. and Protocol number M021M175). Male and Female NSG mice (5-6 weeks old) were purchased from JHU immunocompromised core and used to establish xenografts by administering cells subcutaneously (top right flank, unless otherwise noted) to form various tumor models within 3-4 weeks. Following cell numbers were used: Panc1, AsPC1, BxPC3 (1 M), Hs766T and SU8686 (2 M), CFPAC and Panc1005 (5 M). Imaging or biodistribution studies (n = 3-5) were conducted on mice with tumor volumes of 100-200 mm^3. The Panc1 orthotopic tumor model was established by surgically implanting a 3-5 mm^3 section of Panc1 tumor xenograft directly onto the pancreas. The implanted tumors were allowed to grow and were ready for imaging after 10 days of implantation.
Mice with 100-200 mm^3 tumor volume were used for ex vivo biodistribution studies. For radiotracer pharmacokinetics and dosimetry studies, mice with Panc1 tumor xenograft received ~80 µCi (2.96 MBq) [^68Ga]AJ201 and were sacrificed at pre-determined time points (5, 30, 60, 90 and 120 min). All other mice were injected with ~50 µCi (1.85 MBq; 0.2 to 0.5 nmol) Ga-68 labeled radiotracer and were sacrificed at 60 min. The selected tissues were collected, weighed, counted, and their %ID/g values calculated for biodistribution analysis. For pharmacokinetics and dosimetry studies, selected tissues included blood, muscle, tumor, thymus, heart, lung, liver, pancreas, stomach, small intestine, large intestine, spleen, adrenals, kidney, bladder, femur, brain and tumor xenografts. For other studies, selected tissues were blood, muscle, tumor, heart, lung, liver, pancreas, small intestine, spleen, kidney.

[2] = PET tumor uptake (SUV) of [68Ga]AJ201; format: in vivo; conditions: total radioactivity
[3] = iv, i.v., read-out: Adrenals uptake
[4] = iv, i.v., read-out: Bladder uptake
[5] = iv, i.v., read-out: Femur uptake
[6] = iv, i.v., read-out: Kidney uptake
[7] = iv, i.v., read-out: Large Intestine uptake
[8] = iv, i.v., read-out: Small intestine uptake
[9] = iv, i.v., read-out: Spleen uptake

CC(C)C[C@@H]1NC(=O)[C@@H]2CSCCC(=O)N3CN(CN(C3)C(=O)CCSC[C@H](NC(=O)[C@H](CC(=O)O)NC(=O)[C@H](CCCCNC(=N)N)NC(=O)[C@H](C)NC(=O)CNC(=O)CN(C)C(=O)CN(C)C(=O)CN(C)C(=O)[C@H](CCCNC(=N)N)NC(=O)CNC(=O)CCOCCOCCNC(=O)CN3CCN(CC(=O)O)CCN(CC(=O)O)CC3)C(=O)N3C[C@H](O)C[C@H]3C(=O)N[C@@H](CC(C)C)C(=O)N[C@@H](C(C)C)C(=O)N[C@@H](CC(N)=O)C(=O)N3CCC[C@H]3C(=O)N[C@@H](CC(C)C)C(=O)N2)C(=O)CCSC[C@@H](C(N)=O)NC(=O)[C@H](CCCCNC(=N)N)NC(=O)[C@H](Cc2c[nH]c3ccccc23)NC(=O)[C@@H](CC(=O)O)NC(=O)[C@@H]2CCCN2C(=O)[C@H](Cc2c[nH]cn2)NC1=O [[^68Ga]AJ201, metal not drawn] ({NOTA-PEG2}-GR[Sar][Sar][Sar]GA[hArg]DC[Hyp]LVNPLCLHP[dD]W[hArg]C-NH2; linker 10-17-24 via TATA)
tissue uptake at 2 h ([1]; iv, 80 uCi, i.v., read-out: Pancreas uptake): 0.36 ± 0.07 %ID/g
tissue uptake at 2 h ([1]; iv, 80 uCi, i.v., read-out: Thymus uptake): 1.21 ± 0.52 %ID/g
tissue uptake at 2 h ([1]; iv, 80 uCi, i.v., read-out: Tumor uptake): 6.46 ± 0.39 %ID/g
tissue to tissue ratio at 2 h ([1]; iv, 80 uCi, read-out: Tumor/Muscle ratio): 24.9 ± 1.93
tissue to tissue ratio at 2 h ([1]; iv, 80 uCi, read-out: Tumor/Pancreas ratio): 18.7 ± 2.39
tissue to tissue ratio at 2 h ([1]; iv, 80 uCi, read-out: Tumor/blood ratio): 8.36 ± 1.85
tissue uptake at 5 min [1, 3]: 4.91 ± 1.83 %ID/g
tissue uptake at 5 min [1, 4]: 28.1 ± 12.1 %ID/g
tissue uptake at 5 min [1, 5]: 2.77 ± 0.13 %ID/g
tissue uptake at 5 min [1, 6]: 37.5 ± 5.93 %ID/g
tissue uptake at 5 min [1, 7]: 3.67 ± 0.66 %ID/g
tissue uptake at 5 min [1, 8]: 3.25 ± 0.3 %ID/g
tissue uptake at 5 min [1, 9]: 7.95 ± 1.66 %ID/g
tissue uptake at 0.5 h [1, 3]: 2.44 ± 0.46 %ID/g
tissue uptake at 0.5 h [1, 4]: 53.8 ± 30.8 %ID/g
tissue uptake at 0.5 h [1, 5]: 1.36 ± 0.37 %ID/g
tissue uptake at 0.5 h [1, 6]: 56.9 ± 1.26 %ID/g
tissue uptake at 0.5 h [1, 7]: 1.95 ± 0.98 %ID/g
tissue uptake at 0.5 h [1, 8]: 1.16 ± 0.18 %ID/g
tissue uptake at 0.5 h [1, 9]: 3.87 ± 1.1 %ID/g
tissue uptake at 1 h ([1]; iv, 60 min p.i., i.v., read-out: Bladder uptake): 48.6 ± 15.5 %ID/g
tissue uptake at 1 h ([1]; iv, 60 min p.i., i.v., read-out: Femur uptake): 0.28 ± 0.06 %ID/g
tissue uptake at 1 h ([1]; iv, 60 min p.i., i.v., read-out: Kidney uptake): 45.5 ± 2.9 %ID/g
tissue uptake at 1 h ([1]; iv, 60 min p.i., i.v., read-out: Large Intestine uptake): 0.15 ± 0.01 %ID/g
tissue uptake at 1 h ([1]; iv, 60 min p.i., i.v., read-out: Small intestine uptake): 0.49 ± 0.07 %ID/g
tissue uptake at 1 h ([1]; iv, 60 min p.i., i.v., read-out: Spleen uptake): 0.74 ± 0.17 %ID/g
tissue uptake at 1.5 h [1, 3]: 1.85 ± 0.46 %ID/g
tissue uptake at 1.5 h [1, 4]: 18.3 ± 6.35 %ID/g
tissue uptake at 1.5 h [1, 6]: 61.8 ± 11.5 %ID/g
tissue uptake at 1.5 h [1, 7]: 1.46 ± 0.35 %ID/g
tissue uptake at 1.5 h [1, 8]: 0.6 ± 0.15 %ID/g
tissue uptake at 1.5 h [1, 9]: 1.81 ± 0.78 %ID/g
tissue uptake at 2 h [1, 3]: 2.69 ± 0.27 %ID/g
tissue uptake at 2 h [1, 4]: 19 ± 8.08 %ID/g
tissue uptake at 2 h [1, 6]: 52 ± 7.46 %ID/g
tissue uptake at 2 h [1, 7]: 1.02 ± 0.3 %ID/g
tissue uptake at 2 h [1, 8]: 0.45 ± 0.24 %ID/g
tissue uptake at 2 h [1, 9]: 1.55 ± 0.47 %ID/g
tissue uptake at 2 h ([1]; iv, i.v., read-out: Stomach with contents uptake): 0.3 ± 0.01 %ID/g
tissue uptake at 1 h ([1]; 60 min p.i. with blocking (non-radioactive AJ201 pre-administered), read-out: Adrenals uptake): 2.36 ± 1.09 %ID/g
tissue uptake at 1 h ([1]; 60 min p.i. with blocking (non-radioactive AJ201 pre-administered), read-out: Bladder uptake): 14.4 ± 13.2 %ID/g
tissue uptake at 1 h ([1]; 60 min p.i. with blocking (non-radioactive AJ201 pre-administered), read-out: Blood uptake): 0.65 ± 0.11 %ID/g
tissue uptake at 1 h ([1]; 60 min p.i. with blocking (non-radioactive AJ201 pre-administered), read-out: Brain uptake): 0.04 ± 0.001 %ID/g
tissue uptake at 1 h ([1]; 60 min p.i. with blocking (non-radioactive AJ201 pre-administered), read-out: Femur uptake): 0.38 ± 0.05 %ID/g
tissue uptake at 1 h ([1]; 60 min p.i. with blocking (non-radioactive AJ201 pre-administered), read-out: Heart uptake): 0.31 ± 0.05 %ID/g
tissue uptake at 1 h ([1]; 60 min p.i. with blocking (non-radioactive AJ201 pre-administered), read-out: Kidney uptake): 71.3 ± 14.2 %ID/g
tissue uptake at 1 h ([1]; 60 min p.i. with blocking (non-radioactive AJ201 pre-administered), read-out: Large Intestine uptake): 0.93 ± 0.4 %ID/g
tissue uptake at 1 h ([1]; 60 min p.i. with blocking (non-radioactive AJ201 pre-administered), read-out: Liver uptake): 0.48 ± 0.07 %ID/g
tissue uptake at 1 h ([1]; 60 min p.i. with blocking (non-radioactive AJ201 pre-administered), read-out: Lung uptake): 0.8 ± 0.14 %ID/g
tissue uptake at 1 h ([1]; 60 min p.i. with blocking (non-radioactive AJ201 pre-administered), read-out: Muscle uptake): 0.26 ± 0.03 %ID/g
tissue uptake at 1 h ([1]; 60 min p.i. with blocking (non-radioactive AJ201 pre-administered), read-out: Pancreas uptake): 0.3 ± 0.03 %ID/g
tissue uptake at 1 h ([1]; 60 min p.i. with blocking (non-radioactive AJ201 pre-administered), read-out: Small intestine uptake): 0.51 ± 0.08 %ID/g
tissue uptake at 1 h ([1]; 60 min p.i. with blocking (non-radioactive AJ201 pre-administered), read-out: Spleen uptake): 0.7 ± 0.11 %ID/g
tissue uptake at 1 h ([1]; 60 min p.i. with blocking (non-radioactive AJ201 pre-administered), read-out: Stomach with contents uptake): 0.19 ± 0.06 %ID/g
tissue uptake at 1 h ([1]; 60 min p.i. with blocking (non-radioactive AJ201 pre-administered), read-out: Thymus uptake): 2.28 ± 0.53 %ID/g
tissue uptake at 1 h ([1]; 60 min p.i. with blocking (non-radioactive AJ201 pre-administered), read-out: Tumor uptake): 1.08 ± 0.24 %ID/g
tissue to tissue ratio at 1 h ([1]; 60 min p.i. with blocking (non-radioactive AJ201 pre-administered), read-out: Tumor/Muscle ratio): 4.4 ± 1.19
tissue to tissue ratio at 1 h ([1]; 60 min p.i. with blocking (non-radioactive AJ201 pre-administered), read-out: Tumor/Pancreas ratio): 3.5 ± 0.7
tissue to tissue ratio at 1 h ([1]; 60 min p.i. with blocking (non-radioactive AJ201 pre-administered), read-out: Tumor/blood ratio): 1.66 ± 0.37
SUV [2]: 1.31 ± 0.11 SUV
